What is called Dmax is the largest share of the target that was removed. A word on the DC50: it is the midpoint of the concentration-degradation curve.

Assay [1] concerns the target T1, p300 (Homo sapiens, UniProt Q09472).
T1 construct: host or cells: A549 P300 HiBit cells
Nature of the assay: P300 degradation, HiBit technology in A549 P300 HiBit cells (2 h). The conditions noted are these: 2 hrs post treatment; for Dmax: A549, A549 P300 HiBit cells; for DC50: A549 P300 HiBit cells. The assay is classed as cell-based. In outline: (§1)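 Cells: A549 HiBiT-tagged lines, 0.2×10^4/well, F-12K + 10% HI-FBS, equilibrated overnight. Tx: serial dilution of cpd (10 mM DMSO stock). Readout: HiBiT lytic reagent, 10 min RT shaking, luminescence → potency, Dmax.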
(In general: With HiBiT, luminescence reflects the tagged protein that the partner subunit can reach.)

In assay [2] the target is T2, CBP (Homo sapiens, UniProt Q92793).
T2 construct: host or cells: A549 CBP HiBit cells
T2 sequence (Q92793 whole entry): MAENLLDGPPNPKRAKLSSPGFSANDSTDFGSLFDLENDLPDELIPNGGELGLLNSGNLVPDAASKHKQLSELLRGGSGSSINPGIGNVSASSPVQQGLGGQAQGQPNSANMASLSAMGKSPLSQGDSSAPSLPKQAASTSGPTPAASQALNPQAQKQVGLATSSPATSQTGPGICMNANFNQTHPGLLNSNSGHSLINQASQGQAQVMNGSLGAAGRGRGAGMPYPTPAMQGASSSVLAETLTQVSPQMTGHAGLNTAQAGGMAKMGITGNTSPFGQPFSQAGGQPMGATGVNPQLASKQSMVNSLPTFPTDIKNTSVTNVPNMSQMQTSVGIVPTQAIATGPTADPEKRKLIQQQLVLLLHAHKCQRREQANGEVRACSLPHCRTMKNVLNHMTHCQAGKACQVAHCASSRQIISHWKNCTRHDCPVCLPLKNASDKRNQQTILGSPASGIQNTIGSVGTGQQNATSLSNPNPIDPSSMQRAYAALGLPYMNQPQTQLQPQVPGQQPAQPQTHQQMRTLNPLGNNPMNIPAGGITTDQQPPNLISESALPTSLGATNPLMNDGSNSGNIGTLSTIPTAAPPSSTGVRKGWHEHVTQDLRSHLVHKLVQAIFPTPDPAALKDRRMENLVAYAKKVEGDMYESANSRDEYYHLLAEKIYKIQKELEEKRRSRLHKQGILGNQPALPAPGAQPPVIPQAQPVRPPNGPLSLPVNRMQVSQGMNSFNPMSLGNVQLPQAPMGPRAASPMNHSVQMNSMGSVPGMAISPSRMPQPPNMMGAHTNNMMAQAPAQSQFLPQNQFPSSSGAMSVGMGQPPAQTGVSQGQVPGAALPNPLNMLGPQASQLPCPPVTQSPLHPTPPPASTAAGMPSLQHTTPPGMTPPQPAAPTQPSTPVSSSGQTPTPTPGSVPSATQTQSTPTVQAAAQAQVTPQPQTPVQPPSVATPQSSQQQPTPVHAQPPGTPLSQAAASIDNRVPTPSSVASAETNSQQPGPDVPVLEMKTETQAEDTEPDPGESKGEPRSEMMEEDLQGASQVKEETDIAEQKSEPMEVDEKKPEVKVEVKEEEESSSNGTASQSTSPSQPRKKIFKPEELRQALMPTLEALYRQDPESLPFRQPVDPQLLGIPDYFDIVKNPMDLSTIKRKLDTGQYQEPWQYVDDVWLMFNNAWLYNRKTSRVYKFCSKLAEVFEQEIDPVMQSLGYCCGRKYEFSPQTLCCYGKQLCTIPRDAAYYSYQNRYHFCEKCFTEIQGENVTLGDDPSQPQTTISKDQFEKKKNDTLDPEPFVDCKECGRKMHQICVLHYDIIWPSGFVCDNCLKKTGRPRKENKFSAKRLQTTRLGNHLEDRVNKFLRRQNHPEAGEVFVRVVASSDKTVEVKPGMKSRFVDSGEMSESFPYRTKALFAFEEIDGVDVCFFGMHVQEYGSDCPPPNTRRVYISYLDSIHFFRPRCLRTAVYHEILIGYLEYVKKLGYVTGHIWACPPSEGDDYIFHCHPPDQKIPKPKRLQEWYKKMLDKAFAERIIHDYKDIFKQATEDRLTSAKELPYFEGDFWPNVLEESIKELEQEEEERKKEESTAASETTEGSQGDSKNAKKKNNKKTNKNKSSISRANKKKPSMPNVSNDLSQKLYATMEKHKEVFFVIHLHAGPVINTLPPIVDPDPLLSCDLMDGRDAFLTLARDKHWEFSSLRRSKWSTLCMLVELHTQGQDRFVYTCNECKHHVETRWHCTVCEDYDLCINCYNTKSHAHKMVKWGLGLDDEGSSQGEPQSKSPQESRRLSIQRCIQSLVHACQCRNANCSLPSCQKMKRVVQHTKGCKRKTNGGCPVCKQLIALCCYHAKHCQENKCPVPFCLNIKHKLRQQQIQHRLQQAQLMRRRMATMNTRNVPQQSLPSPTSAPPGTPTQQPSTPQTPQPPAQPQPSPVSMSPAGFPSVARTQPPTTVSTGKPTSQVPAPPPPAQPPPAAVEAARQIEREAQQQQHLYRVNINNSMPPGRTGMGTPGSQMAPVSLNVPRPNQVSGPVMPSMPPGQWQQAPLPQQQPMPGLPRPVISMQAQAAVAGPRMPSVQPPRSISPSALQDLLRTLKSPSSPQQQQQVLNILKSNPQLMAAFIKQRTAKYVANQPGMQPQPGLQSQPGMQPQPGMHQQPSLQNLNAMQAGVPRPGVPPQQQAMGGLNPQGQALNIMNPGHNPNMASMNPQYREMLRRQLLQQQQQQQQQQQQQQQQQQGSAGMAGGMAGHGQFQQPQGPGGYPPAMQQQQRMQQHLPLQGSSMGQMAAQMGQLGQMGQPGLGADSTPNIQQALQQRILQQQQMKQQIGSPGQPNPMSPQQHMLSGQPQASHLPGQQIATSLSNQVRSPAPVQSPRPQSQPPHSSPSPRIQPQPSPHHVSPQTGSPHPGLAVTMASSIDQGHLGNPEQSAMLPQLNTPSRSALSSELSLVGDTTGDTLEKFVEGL
Nature of the assay: CBP degradation, HiBit technology in A549 CBP HiBit cells (24 h). The assay is classed as cell-based. The conditions noted are these: 24 hrs post treatment. In outline:
as §1

T1 sequence (Q09472 whole entry): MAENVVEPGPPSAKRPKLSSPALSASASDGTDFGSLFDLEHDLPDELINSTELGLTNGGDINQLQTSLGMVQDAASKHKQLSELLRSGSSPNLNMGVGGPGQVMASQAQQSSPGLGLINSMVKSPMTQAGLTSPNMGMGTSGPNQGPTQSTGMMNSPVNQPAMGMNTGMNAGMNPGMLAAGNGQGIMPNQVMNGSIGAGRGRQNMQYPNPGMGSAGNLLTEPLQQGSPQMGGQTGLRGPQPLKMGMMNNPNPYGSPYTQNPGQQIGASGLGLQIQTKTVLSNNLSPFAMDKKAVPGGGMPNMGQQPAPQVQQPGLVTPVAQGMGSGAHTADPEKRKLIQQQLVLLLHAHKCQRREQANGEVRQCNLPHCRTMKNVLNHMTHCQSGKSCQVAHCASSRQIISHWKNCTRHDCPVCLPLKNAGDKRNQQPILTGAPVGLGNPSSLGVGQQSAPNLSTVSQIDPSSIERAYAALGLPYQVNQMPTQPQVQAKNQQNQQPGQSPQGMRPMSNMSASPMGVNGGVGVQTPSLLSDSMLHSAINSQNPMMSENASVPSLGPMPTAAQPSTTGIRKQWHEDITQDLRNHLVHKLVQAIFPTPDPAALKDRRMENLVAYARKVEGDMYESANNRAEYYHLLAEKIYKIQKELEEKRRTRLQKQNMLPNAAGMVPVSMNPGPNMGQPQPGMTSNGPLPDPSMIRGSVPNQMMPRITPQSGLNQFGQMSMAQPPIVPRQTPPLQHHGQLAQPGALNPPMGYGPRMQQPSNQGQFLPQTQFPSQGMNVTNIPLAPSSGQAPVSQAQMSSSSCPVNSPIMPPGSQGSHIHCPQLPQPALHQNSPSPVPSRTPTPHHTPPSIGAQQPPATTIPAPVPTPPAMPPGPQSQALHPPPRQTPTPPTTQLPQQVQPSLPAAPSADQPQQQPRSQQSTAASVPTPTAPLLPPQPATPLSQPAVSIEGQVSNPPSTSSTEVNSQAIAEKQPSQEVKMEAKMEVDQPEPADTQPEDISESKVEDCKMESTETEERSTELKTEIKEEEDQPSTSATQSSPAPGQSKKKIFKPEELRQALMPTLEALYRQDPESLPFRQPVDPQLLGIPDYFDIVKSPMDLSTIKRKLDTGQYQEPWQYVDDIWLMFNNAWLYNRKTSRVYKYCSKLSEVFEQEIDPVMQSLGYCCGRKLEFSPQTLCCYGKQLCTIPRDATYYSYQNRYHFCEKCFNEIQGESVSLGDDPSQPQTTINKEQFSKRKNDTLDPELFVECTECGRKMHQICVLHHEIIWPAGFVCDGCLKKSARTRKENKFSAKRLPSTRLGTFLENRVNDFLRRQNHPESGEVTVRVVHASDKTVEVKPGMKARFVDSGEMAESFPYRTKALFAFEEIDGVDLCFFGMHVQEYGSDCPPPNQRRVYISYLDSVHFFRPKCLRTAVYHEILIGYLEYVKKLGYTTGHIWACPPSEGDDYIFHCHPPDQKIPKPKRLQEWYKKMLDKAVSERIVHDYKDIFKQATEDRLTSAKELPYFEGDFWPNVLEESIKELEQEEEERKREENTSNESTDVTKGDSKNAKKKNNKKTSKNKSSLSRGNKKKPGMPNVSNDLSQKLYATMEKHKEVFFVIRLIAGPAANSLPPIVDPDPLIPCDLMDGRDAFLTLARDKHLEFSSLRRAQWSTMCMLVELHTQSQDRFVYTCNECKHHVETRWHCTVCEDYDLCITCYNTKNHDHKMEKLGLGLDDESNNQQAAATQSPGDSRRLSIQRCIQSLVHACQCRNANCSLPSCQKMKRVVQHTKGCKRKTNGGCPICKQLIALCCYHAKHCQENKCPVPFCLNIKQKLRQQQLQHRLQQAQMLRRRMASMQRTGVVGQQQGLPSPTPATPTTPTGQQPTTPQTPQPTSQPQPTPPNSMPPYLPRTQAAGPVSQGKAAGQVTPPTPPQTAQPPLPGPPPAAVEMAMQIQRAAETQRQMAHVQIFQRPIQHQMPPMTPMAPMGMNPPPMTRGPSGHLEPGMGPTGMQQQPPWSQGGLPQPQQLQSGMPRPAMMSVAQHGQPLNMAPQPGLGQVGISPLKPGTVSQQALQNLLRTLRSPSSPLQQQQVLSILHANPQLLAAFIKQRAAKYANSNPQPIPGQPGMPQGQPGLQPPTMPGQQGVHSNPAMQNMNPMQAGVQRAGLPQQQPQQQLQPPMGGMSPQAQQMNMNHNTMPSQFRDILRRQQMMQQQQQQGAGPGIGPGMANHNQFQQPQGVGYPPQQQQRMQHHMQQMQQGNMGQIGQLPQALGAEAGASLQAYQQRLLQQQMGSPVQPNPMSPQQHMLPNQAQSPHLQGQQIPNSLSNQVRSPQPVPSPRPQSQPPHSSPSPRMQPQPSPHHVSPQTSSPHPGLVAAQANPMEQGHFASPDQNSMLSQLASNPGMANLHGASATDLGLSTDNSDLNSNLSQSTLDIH

In assay [1], `Cc1cc(-c2cc3c(cn2)N(c2cccc4c2cc(C)c(=O)n4C)CCO3)cnc1C(=O)NCC#Cc1ccc2occ(C3CCC(=O)NC3=O)c2c1` (stereo not shown) [Example B83, 5-(4-(1,3-dimethyl-2-oxo-1,2-dihydroquinolin-5-yl)-3,4-dihydro-2H-pyrido[4,3-b][1,4]oxazin-7-yl)-N-(3-(3-(2,6-dioxopiperidin-3-yl)benzofuran-5-yl)prop-2-yn-1-yl)-3-methylpicolinamide] returned a Dmax of more than 80% and a 50% degradation concentration (DC50) of 1 to 9.9 nM. In assay [2], the 50% degradation concentration (DC50) is 100 to 999 nM and the Dmax lay in the range of 40 to 59%.

As to `Cc1cc(-c2cc3cccc(-c4ccc5c(c4)n(C)c(=O)n5C)c3cn2)cnc1C(=O)NCC#Cc1cc2c([C@H]3CCC(=O)NC3=O)cccc2o1` [Example A181, (R)-5-(8-(1,3-dimethyl-2-oxo-2,3-dihydro-1H-benzo [d]imidazol-5-yl)isoquinolin-3-yl)-N-(3-(4-(2,6-dioxopiperidin-3-yl)benzofuran-2-yl)prop-2-yn-1-yl)-3-methylpicolinamide], the maximal degradation (Dmax) is more than 80% in assay [1] and less than 20% in assay [2]. The DC50 is 1 to 9.9 nM in assay [1] and 100 to 999 nM in assay [2].

Regarding `Cn1c(=O)n(C)c2cc(C3=CC(C)(C)Oc4cc(-c5ccc(C(=O)NCC#Cc6ccc7occ(C8CCC(=O)NC8=O)c7c6)nc5)ncc43)ccc21` (stereo not shown) [Example A263, 5-(4-(1,3-dimethyl-2-oxo-2,3-dihydro-1H-benzo[d]imidazol-5-yl)-2,2-dimethyl-2H-pyrano[3,2-c]pyridin-7-yl)-N-(3-(3-(2,6-dioxopiperidin-3-yl)benzofuran-5-yl)prop-2-yn-1-yl)picolinamide], the maximal degradation (Dmax) in assay [1] is more than 80%; in assay [2], less than 20%. Further, the DC50 is 1 to 9.9 nM in assay [1] and more than 1000 nM in assay [2].

In assay [1], `Cc1cc(-c2ncc(N(C)c3cc(C4CCOCC4)c4c(c3)n(C)c(=O)n4C)cn2)cnc1C(=O)NCC#Cc1ccc2occ([C@@H]3CCC(=O)NC3=O)c2c1` [Example A55, (S)-5-(5-((1,3-dimethyl-2-oxo-7-(tetrahydro-2H-pyran-4-yl)-2,3-dihydro-1H-benzo[d]imidazol-5-yl)(methyl)amino)pyrimidin-2-yl)-N-(3-(3-(2,6-dioxo-piperidin-3-yl)benzofuran-5-yl)prop-2-yn-1-yl)-3-methylpicolinamide] yielded a Dmax of more than 80% and a 50% degradation concentration (DC50) of 1 to 9.9 nM. In assay [2], the DC50 is more than 1000 nM and the Dmax is less than 20%.

In assay [1], `Cc1cc2c(N3CCCc4nc(-c5ccc(C(=O)NCC#Cc6cc7c(C8CCC(=O)NC8=O)cccc7o6)nc5)ncc43)nc(N3CCOCC3)cc2n(C)c1=O` (stereo not shown) [Example B28, 5-(5-(1,3-dimethyl-7-morpholino-2-oxo-1,2-dihydro-1,6-naphthyridin-5-yl)-5,6,7,8-tetrahydropyrido[3,2-d]pyrimidin-2-yl)-N-(3-(4-(2,6-dioxopiperidin-3-yl)benzofuran-2-yl)prop-2-yn-1-yl)picolinamide] yielded a Dmax of more than 80% and a 50% degradation concentration (DC50) of 1 to 9.9 nM. In assay [2], this molecule registered a DC50 of 100 to 999 nM and a Dmax of less than 20%.

In assay [1], `Cc1c(-c2ccc(C(=O)NCC#Cc3ccc4occ(C5CCC(=O)NC5=O)c4c3)nc2)ncc2c(-c3ccc4c(c3)n(C)c(=O)n4C)cccc12` (stereo not shown) [Example A63, 5-(8-(1,3-dimethyl-2-oxo-2,3-dihydro-1H-benzo[d]imidazol-5-yl)-4-methylisoquinolin-3-yl)-N-(3-(3-(2,6-dioxo-piperidin-3-yl)benzofuran-5-yl)prop-2-yn-1-yl)picolinamide] returned a Dmax of more than 80% and a DC50 of less than 1 nM. In assay [2], this molecule had a DC50 of 100 to 999 nM and a maximal degradation (Dmax) of less than 20%.

For the molecule `CC(C)c1cc(-c2cccc3cc(-c4ccc(C(=O)NCC#Cc5cc6c(C7CCC(=O)NC7=O)coc6cc5F)nc4)ncc23)cc2c1n(C)c(=O)n2C` (stereo not shown) [Example A234, N-(3-(3-(2,6-dioxo-piperidin-3-yl)-6-fluorobenzofuran-5-yl)prop-2-yn-1-yl)-5-(8-(7-isopropyl-1,3-dimethyl-2-oxo-2,3-dihydro-1H-benzo [d]imidazol-5-yl)isoquinolin-3-yl)picolinamide], in assay [1], the Dmax is more than 80% and the DC50 lay within 1 to 9.9 nM. In assay [2], this molecule came in with a 50% degradation concentration (DC50) of more than 1000 nM and a Dmax of less than 20%.

In assay [1], `Cc1cc2c(N3CCCc4nc(-c5ccc(C(=O)NCC#Cc6ccc7occ(C89CC(C8)C(=O)NC9=O)c7c6)nc5)ncc43)cc(C3CCOCC3)cc2n(C)c1=O` [Example B107, 5-(5-(1,3-dimethyl-2-oxo-7-(tetrahydro-2H-pyran-4-yl)-1,2-dihydroquinolin-5-yl)-5,6,7,8-tetrahydropyrido[3,2-d]pyrimidin-2-yl)-N-(3-(3-(2,4-dioxo-3-azabicyclo[3.1.1]heptan-1-yl)benzofuran-5-yl)prop-2-yn-1-yl) picolinamide] returned a maximal degradation (Dmax) of 60 to 79% and a DC50 of 1 to 9.9 nM. In assay [2], this molecule displayed a 50% degradation concentration (DC50) of more than 1000 nM and a Dmax of less than 20%.

In assay [1], `Cc1cc(-c2cc3cccc(-c4cc5c(c(N6CCOCC6)n4)n(C)c(=O)n5C)c3cn2)cnc1C(=O)NCC#Cc1ccc2occ(C3CCC(=O)NC3=O)c2c1` (stereo not shown) [Example A150, 5-(8-(1,3-dimethyl-4-morpholino-2-oxo-2,3-dihydro-1H-imidazo[4,5-c]pyridin-6-yl)isoquinolin-3-yl)-N-(3-(3-(2,6-dioxopiperidin-3-yl)benzofuran-5-yl)prop-2-yn-1-yl)-3-methylpicolinamide] came in with a maximal degradation (Dmax) of more than 80% and a 50% degradation concentration (DC50) of 1 to 9.9 nM. In assay [2], this molecule returned a DC50 of more than 1000 nM and a maximal degradation (Dmax) of less than 20%.

On to `CC(C)c1cc(-c2cccc3cc(-c4ccc(C(=O)NCC#Cc5ccc6nnn(C7CCC(=O)NC7=O)c6c5)nc4)ncc23)cc2c1n(C)c(=O)n2C` (stereo not shown) [Example A3, N-(3-(1-(2,6-Dioxopiperidin-3-yl)-1H-benzo[d][1,2,3]triazol-6-yl)prop-2-yn-1-yl)-5-(8-(7-isopropyl-1,3-dimethyl-2-oxo-2,3-dihydro-1H-benzo[d]imidazol-5-yl)isoquinolin-3-yl)picolinamide], for which, in assay [1], the maximal degradation (Dmax) was more than 80% and the DC50 is less than 1 nM. In assay [2], this molecule yielded a DC50 of more than 1000 nM and a maximal degradation (Dmax) of less than 20%.

In assay [1], `Cc1cc2c(N3CCCc4nc(-c5ccc(C(=O)NCC#Cc6cc7c([C@@H]8CCC(=O)NC8=O)cccc7o6)nc5)ncc43)cc(C3CCOCC3)nc2n(C)c1=O` [Example B49, (S)-5-(5-(6,8-dimethyl-7-oxo-2-(tetrahydro-2H-pyran-4-yl)-7,8-dihydro-1,8-naphthyridin-4-yl)-5,6,7,8-tetrahydropyrido[3,2-d]pyrimidin-2-yl)-N-(3-(4-(2,6-dioxopiperidin-3-yl)benzofuran-2-yl)prop-2-yn-1-yl)picolinamide] registered a Dmax of more than 80% and a DC50 of 1 to 9.9 nM. In addition, in assay [2], the 50% degradation concentration (DC50) was more than 1000 nM and the Dmax was less than 20%.

As for `Cc1cc2c(N3CCCc4nc(-c5ccc(C(=O)NCC#Cc6oc7cccc(C8CCC(=O)NC8=O)c7c6F)nc5)ncc43)cc(C3CCOCC3)cc2n(C)c1=O` (stereo not shown) [Example B60, 5-(5-(1,3-dimethyl-2-oxo-7-(tetrahydro-2H-pyran-4-yl)-1,2-dihydroquinolin-5-yl)-5,6,7,8-tetrahydropyrido[3,2-d]pyrimidin-2-yl)-N-(3-(4-(2,6-dioxopiperidin-3-yl)-3-fluorobenzo-furan-2-yl)prop-2-yn-1-yl)picolinamide], in assay [1], the maximal degradation (Dmax) was more than 80% and the half-maximal degradation concentration (DC50) was 1 to 9.9 nM. Moreover, in assay [2], the DC50 was more than 1000 nM and the Dmax is less than 20%.

In assay [1], `Cc1cc2c(-c3cccc4cc(-c5ccc(C(=O)NCC#Cc6ccc7occ(C8CCC(=O)NC8=O)c7c6)nc5)ncc34)nc(OC(C)C)cc2n(C)c1=O` (stereo not shown) [Example B88, N-(3-(3-(2,6-dioxopiperidin-3-yl)benzofuran-5-yl)prop-2-yn-1-yl)-5-(8-(7-isopropoxy-1,3-dimethyl-2-oxo-1,2-dihydro-1,6-naphthyridin-5-yl)isoquinolin-3-yl)picolinamide] displayed a Dmax of more than 80% and a DC50 of 1 to 9.9 nM. For the same molecule, in assay [2], the DC50 is more than 1000 nM and the Dmax is less than 20%.

In assay [1], `Cn1c(=O)n(C)c2c(N3CC(C)(O)C3)nc(-c3cccc4cc(-c5ccc(C(=O)NCC#Cc6ccc7occ(C8CCC(=O)NC8=O)c7c6)nc5)ncc34)cc21` (stereo not shown) [Example A145, N-(3-(3-(2,6-dioxo-piperidin-3-yl)benzofuran-5-yl)prop-2-yn-1-yl)-5-(8-(4-(3-hydroxy-3-methylazetidin-1-yl)-1,3-dimethyl-2-oxo-2,3-dihydro-1H-imidazo[4,5-c]pyridin-6-yl)isoquinolin-3-yl)picolinamide] registered a Dmax of more than 80% and a DC50 of less than 1 nM. In assay [2], the DC50 is more than 1000 nM and the greatest degradation seen (Dmax) was less than 20%.

On to `CC(C)c1cc(-c2cccc3cc(-c4ccc(C(=O)NC/C=C/c5cc(NC6CCC(=O)NC6=O)nn5C)nc4)ncc23)cc2c1n(C)c(=O)n2C` (stereo not shown) [Example A16, (E)-N-(3-(3-((2,6-Dioxopiperidin-3-yl)amino)-1-methyl-1H-pyrazol-5-yl)allyl)-5-(8-(7-isopropyl-1,3-dimethyl-2-oxo-2,3-dihydro-1H-benzo[d]imidazol-5-yl)isoquinolin-3-yl)picolinamide], for which, in assay [1], the Dmax lay within 20 to 39% and the 50% degradation concentration (DC50) was 1 to 9.9 nM. In addition, in assay [2], the 50% degradation concentration (DC50) is more than 1000 nM and the Dmax is less than 20%.

In assay [1], `CC(C)c1cc(-c2cccc3cc(-c4ccc(C(=O)NCC#Cc5ccc6cnn(C7CCC(=O)NC7=O)c6c5)nc4)ncc23)cc2c1n(C)c(=O)n2C` (stereo not shown) [Example A11, N-(3-(1-(2,6-Dioxopiperidin-3-yl)-1H-indazol-6-yl)prop-2-yn-1-yl)-5-(8-(7-isopropyl-1,3-dimethyl-2-oxo-2,3-dihydro-1H-benzo[d]imidazol-5-yl)isoquinolin-3-yl)picolinamide] showed a maximal degradation (Dmax) of more than 80% and a half-maximal degradation concentration (DC50) of 1 to 9.9 nM. In assay [2], this molecule came in with a DC50 of 10 to 99 nM and a Dmax of 20 to 39%.

Source of the values: US20250114345A1, “COMPOUNDS AND COMPOSITIONS AS CBP/P300 DEGRADERS AND USES THEREOF” (Oncopia Therapeutics, Inc. d/b/a/ SK Life Science Labs, priority 2023, published 2025).
